Data on 19 compounds can be found in patent EP2664616A1, “Hydantoin and thiohydantoin derivatives as antiviral drugs” (priority 2012, dated 2013).

A value given as a limit tells only on which side of the number the result lay.

The test system of the first experiment is HCV replicon Luc Neo ET. Kind of experiment: HCV replication inhibition assay (replicon assay, luciferase reporter). It counts as cell-based. Conditions: Hepatitis C virus; Huh-7 cell lines containing HCV replicon Luc Neo ET; 72 hours with compound; 1 % DMSO; firefly luciferase reporter; concentration that produces 50 % of replication inhibition; read-out: EC50 Replicon LucneoET. The method, then: The compounds according to the present invention were tested for their ability to inhibit HCV replication as follows:
Huh-7 cell lines containing HCV replicon Luc Neo ET (Reblikon) were maintained in DMEM supplemented with 10% SVF, 2 mM glutamine, and 1 X NEAA, 100 U / ml penicillin, and 100 µg / ml streptomycine. Cells were maintained in medium supplemented with 0.5 mg/ml G418, at 37°C and 5% CO2 in a humidified atmosphere. Cells were dissociated at sub confluence with trypsin EDTA 1X.
Replicon Luc Neo ET is bicistronic expression constructs (Lohmann et al, 1999, Science 285, 110-113). In brief, the structural genes of the HCV genome were replaced by heterologous sequences; the gene encoding the neomycin phosphotransferase (NPT) and the internal ribosome entry site (IRES) of the encephalomyocarditis virus (EMCV). The bicistronic construct is therefore composed of the following elements: HCV-IRES nucleotides 1-389 for Luc Neo ET, the NPT gene, the EMCV-IRES directing translation of downstream HCV sequences from NS2 or NS3 up to the authentic 3' end of the genome. HCV Polyprotein of Luc Neo ET replicon harbours the cell culture adaptive mutations E1202G, T1280I, K1846T. G418-resistance is only possible with cells containing high amounts of replicon.
Cells were dissociated the day before addition of compounds and seeded in 96 well-plates at a final concentration of 27 777.77 cells.ml^-1.cm^-2 in 90µl final volume of culture medium per well and were maintained at 37°C and 5% CO2 in a humidified atmosphere for 24 hours. 10 µl of compounds to be tested were added 24 hours after seeding. Final concentration of DMSO was 1 %. Cells were incubated in the presence of compounds for 72 hours after which expression of firefly luciferase reporter gene was quantified. Briefly, culture medium was removed and cells were lysed by addition of 100 µl of lysis buffer containing 125 mM Tris Phosphate ph 7.8, 10 mM EDTA, 5 mM DTT, 50 % glycerol and 5 % Triton. Plates were vortexed 10 min at 1300 rpm. 100µl of luciferin solution 1X were added to each well. Luciferin solution contained 40 mM Tris Phosphate ph 7.8, 0.2 mM EDTA, 67 mM DTT, 2.14 mM MgCl2, 5.4 mM MgSO4, 4.7 x 10^-4 M luciferin, 5.3 x 10^-4 M ATP and 2.7 x 10^-4 M Acetyl co enzyme A. Luminescence was immediately measured with Berthold Microlumat Plus LB 96V luminometer with an integration of 1 sec. Inhibition was calculated using the formula: % inhibition = 1-[(RLUsample-RLUbackground)/(RLUsignal-RLUbackground)].
The Table 1 below illustrates data on the biological activity of compounds of the present invention. Results are expressed as EC50 which is the concentration that produces 50 % of replication inhibition. Table 1. HCV replication inhibition assay
As for `COc1ccc(CCN2C(=S)N(c3ccc(F)cc3)C(=O)C2CC(=O)Nc2ccc(OC(C)C)cc2)cc1` (stereo not shown) [Example 54, 2-[1-(4-fluorophenyl)-3-[2-(4-methoxyphenyl)ethyl]-5-oxo-2-sulfanylideneimidazolidin-4-yl]-N-[4-(propan-2-yloxy)phenyl]acetamide], the EC50 (usually the concentration giving half of the maximal effect) was below 0.5 µM.

On to `COc1ccc(CCN2C(=S)N(c3ccc(F)cc3)C(=O)C2CC(=O)Nc2ccc(O)cc2)cc1` (stereo not shown) [Example 91, 2-[1-(4-fluorophenyl)-3-[2-(4-methoxyphenyl)ethyl]-5-oxo-2-sulfanylideneimidazolidin-4-yl]-N-(4-hydroxyphenyl)acetamide], for which the EC50 was below 0.5 µM. For `COc1ccc(CCN2C(=O)N(c3ccc(F)cc3)C(=O)C2CC(=O)Nc2ccc(OC)cn2)cc1` (stereo not shown) [Example 72, 2-[1-(4-fluorophenyl)-3-[2-(4-methoxyphenyl)ethyl]-2,5-dioxoimidazolidin-4-yl]-N-(5-methoxypyridin-2-yl)acetamide], the EC50 was below 5 µM.

Consider `O=C(CC1C(=O)N(c2ccccc2)C(=S)N1CCc1ccc(Cl)cc1)Nc1ccccn1` (stereo not shown) [Example 57, 2-{3-[2-(4-chlorophenyl)ethyl]-5-oxo-1-phenyl-2-sulfanylideneimidazolidin-4-yl}-N-(pyridin-2-yl)acetamide], for which the EC50 is below 0.5 µM. Take `O=C(CC1C(=O)N(c2ccc(F)cc2)C(=S)N1CCc1ccc(Cl)cc1)Nc1ccc(N2CCOCC2)cc1` (stereo not shown) [Example 41, 2-{3-[2-(4-chlorophenyl)ethyl]-1-(4-fluorophenyl)-5-oxo-2-sulfanylideneimidazolidin-4-yl}-N-[4-(morpholin-4-yl)phenyl]acetamide]: the EC50 is below 0.5 µM.

On to `O=C(CC1C(=O)N(c2ccccc2)C(=S)N1CCc1ccc(Cl)cc1)Nc1ccon1` (stereo not shown) [Example 64, 2-{3-[2-(4-chlorophenyl)ethyl]-5-oxo-1-phenyl-2-sulfanylideneimidazolidin-4-yl}-N-(1,2-oxazol-3-yl)acetamide], for which the EC50 is below 5 µM.

The experiment is the same for the next values; noted with them: Huh-7 cell lines containing HCV replicon Luc Neo ET; 72 hours with compound; 1 % DMSO; firefly luciferase reporter; concentration that produces 50 % of replication inhibition; read-out: EC50 Replicon LucneoET.
Consider `CCOc1ccc(NC(=O)CC2C(=O)N(c3ccccc3)C(=O)N2CCC(C)C)cc1` (stereo not shown) [Example 15], for which the EC50 was below 5 µM. With `CCOc1ccc(NC(=O)CC2C(=O)N(c3ccccc3)C(=S)N2CCc2ccccc2F)cc1` (stereo not shown) [Example 7], the EC50 is below 0.5 µM. Consider “N-[4-(dimethylamino)phenyl]-2-{4-hydroxy-3-[2-(4-methoxyphenyl)ethyl]-5-oxo-1-phenyl-2-sulfanylideneimidazolidin-4-yl}acetamide [Example 70]”, for which the EC50 is below 0.5 µM.

For the compound “2-{3-[2-(4-chlorophenyl)ethyl]-5-oxo-1-phenyl-2-sulfanylideneimidazolidin-4-yl}-N-(pyridin-3-ylmethyl)acetamide [Example 56]”, the EC50 is below 5 µM. Turning to “2-{3-[2-(4-chlorophenyl)ethyl]-1-(4-fluorophenyl)-5-oxo-2-sulfanylideneimidazolidin-4-yl}-N-(5-methoxypyridin-2-yl)acetamide [Example 67]”, the EC50 is below 5 µM. For the compound `O=C(CC1C(=O)N(c2ccc(F)cc2)C(=S)N1CCc1ccc(Cl)cc1)Nc1ccccc1` (stereo not shown) [Example 8], the EC50 is below 0.5 µM.

For the compound `COCCCN1C(=S)N(c2ccc(F)cc2)C(=O)C1CC(=O)Nc1ccc(OC)cc1` (stereo not shown) [Example 27], the EC50 is below 30 µM. On the same count and under the same terms, for `COc1ccc(CCN2C(=S)N(c3ccc(F)cc3)C(=O)C2CC(=O)Nc2ccc(OC)cc2)cc1` (stereo not shown) [Example 6] the value was below 0.5 µM. Same read-out and setting: for `COC(=O)c1ccc(NC(=O)CC2C(=O)N(c3ccccc3)C(=S)N2CCc2ccc(Cl)cc2)cc1` (stereo not shown) [Example 25] the value was below 5 µM; for `O=C(CC1C(=O)N(c2ccccc2)C(=S)N1CCc1ccc(Cl)cc1)Nc1ccccc1` (stereo not shown) [Example 11], below 5 µM. Regarding `Cc1ccsc1CCN1C(=S)N(c2ccccc2)C(=O)C1CC(=O)Nc1ccc(F)cc1` (stereo not shown) [Example 23], the EC50 is below 5 µM. In the case of `CCCOc1ccc(NC(=O)CC2C(=O)N(c3ccccc3)C(=S)N2CCCN2CCN(Cc3ccccc3)CC2)cc1` (stereo not shown) [Example 10], the EC50 was below 5 µM. Consider `CCCOc1ccc(NC(=O)CC2C(=O)N(c3ccc(F)cc3)C(=S)N2CCCN2CCN(CC)CC2)cc1` (stereo not shown) [Example 31], for which the EC50 was below 30 µM.
